Like-named read-outs stand apart in the source and are kept apart here.
Target: T1, Chk1 (Homo sapiens, UniProt O14757)
T1 construct: purchased Upstate Biotechnology
T1 sequence (O14757 1-476): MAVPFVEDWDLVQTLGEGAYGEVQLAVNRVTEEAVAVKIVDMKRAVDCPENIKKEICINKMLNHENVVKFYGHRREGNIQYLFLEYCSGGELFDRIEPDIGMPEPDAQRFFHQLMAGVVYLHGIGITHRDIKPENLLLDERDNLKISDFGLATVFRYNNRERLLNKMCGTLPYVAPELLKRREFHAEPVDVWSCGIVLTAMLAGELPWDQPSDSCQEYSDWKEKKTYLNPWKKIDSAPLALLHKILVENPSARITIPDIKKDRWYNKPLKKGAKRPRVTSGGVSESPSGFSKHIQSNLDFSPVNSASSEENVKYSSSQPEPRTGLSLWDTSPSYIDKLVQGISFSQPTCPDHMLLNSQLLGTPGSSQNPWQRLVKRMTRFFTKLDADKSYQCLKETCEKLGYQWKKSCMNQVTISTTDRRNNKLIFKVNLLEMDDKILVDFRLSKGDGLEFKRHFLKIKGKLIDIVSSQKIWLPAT
Assay: Chk1 kinase assay: incorporation of γ-33P ATP into immobilized myelin basic protein
Type: biochemical
Conditions: read-out: Chk1 IC50
Description: Chk1 and Chk2 assays were performed by measuring incorporation of γ-^33P ATP into immobilized myelin basic protein (MBP). High binding white 384 well plates (Greiner) were coated with MBP (Sigma #M-1891) by incubation of 60 ul/well of 20 μg/ml MBP in Tris-buffered saline (TBS; 50 mM Tris pH 8.0, 138 mM NaCl, 2.7 mM KCl) for 24 hours at 4° C. Plates were washed 3× with 100 μl TBS. Kinase reactions were carried out in a total volume of 34 μl in kinase buffer (5 mM Hepes pH 7.6, 15 mM NaCl, 0.01% bovine gamma globulin (Sigma #I-5506), 10 mM MgCl2, 1 mM DTT, 0.02% TritonX-100). Compound dilutions were performed in DMSO and added to assay wells to a final DMSO concentration of 1%. Each data point was measured in duplicate, and at least two duplicate assays were performed for each individual compound determination. Chk1 and Chk2 enzymes (Upstate Biotechnology) were added to final concentrations of 10 nM (Chk1) or 20 nM (Chk2). A mixture of unlabeled ATP and γ-^33P ATP was added to start the reaction (2×10^6 cpm of γ-^33P ATP per well (3000 Ci/mmole) and either 10 μM or 30 μM unlabeled ATP (for Chk1 and Chk2 assays respectively). The reaction was carried out for 1 hour at room temperature with shaking. Plates were washed 7× with TBS, followed by the addition of 50 μl/well scintillation fluid (Wallac). Plates were read using a Wallac Trilux counter. This is only one format of such assays, various other formats are possible, as known to those skilled in the art.
The above assay procedure can be used to determine the IC50 for inhibition and/or the inhibition constant Ki. The IC50 is defined as the concentration of compound required to reduce the enzyme activity by 50% under the conditions of the assay. […] The Ki for a compound may be determined from the IC50 based on three assumptions. First, only one compound molecule binds to the enzyme and there is no cooperativity. […] Third, the enzymatic rate of the enzyme-inhibitor complex is zero. The rate (i.e., compound concentration) data are fitted to the equation: […]

| IC50 | IC50 (Table 11, Chk1 only) | Structure (SMILES) |
| --- | --- | --- |
| 0.05 to 1 µM |  | CNC(=O)c1nc(-c2cccc(C(=O)NCc3cccc(F)c3)c2)cnc1N [Example 110, 3-amino-6-[3-({[(3-fluorophenyl)methyl]amino}carbonyl)phenyl]-N-methylpyrazine-2-carboxamide] |
|  | 0.05 to 1 µM | CC(=O)c1nc(-c2cccc(CN[C@H]3CCc4ccccc43)c2)cnc1N [Example 531, 1-[3-amino-6-(3-{[(1S)-2,3-dihydro-1H-inden-1-ylamino]methyl}phenyl)pyrazin-2-yl]ethanone] |
| 0.05 to 1 µM |  | CNC(=O)c1nc(-c2ccc(OC3CCCCO3)cc2)cnc1N (stereo not drawn) [Example 235, 3-amino-N-methyl-6-[4-(tetrahydro-2H-pyran-2-yloxy)phenyl]pyrazine-2-carboxamide] |
|  | ≥ 10 µM | C/C(=N\Nc1ccc(Cl)cc1)c1nc(-c2cccc(C(=O)NCc3ccccc3)c2)cnc1N [Example 603, 3-{5-amino-6-[(1E)-N-(4-chlorophenyl)ethanehydrazonoyl]pyrazin-2-yl}-N-(phenylmethyl)benzamide] |
|  | 0.05 to 1 µM | CNC(=O)c1nc(-c2cccc(CNC3CCc4c(F)ccc(Br)c43)c2)cnc1N (stereo not drawn) [Example 484, 3-amino-6-(3-{[(7-bromo-4-fluoro-2,3-dihydro-1H-inden-1-yl)amino]methyl}phenyl)-N-methylpyrazine-2-carboxamide] |
|  | < 0.05 µM | Nc1ncc(-c2cccc(C(=O)N[C@H]3CCc4ccccc43)c2)nc1C(=O)NC1CCCNC1 (stereo partly drawn) [Example 729, 3-amino-6-(3-{[(1S)-2,3-dihydro-1H-inden-1-ylamino]carbonyl}phenyl)-N-piperidin-3-ylpyrazine-2-carboxamide] |
| 0.05 to 1 µM |  | CNC(=O)c1nc(-c2cccc(C(=O)NCc3ccc(C(F)(F)F)nc3)c2)cnc1N [Example 406, 3-amino-N-methyl-6-{3-[({[6-(trifluoromethyl)pyridin-3-yl]methyl}amino)carbonyl]phenyl}pyrazine-2-carboxamide] |
| 0.05 to 1 µM |  | CNC(=O)c1nc(-c2cccc(NC(=O)OCc3ccccc3)c2)cnc1N [Example 318, phenylmethyl (3-{5-amino-6-[(methylamino)carbonyl]pyrazin-2-yl}phenyl)carbamate] |
| ≥ 10 µM |  | Nc1ncc(-c2ccccc2)nc1C(=O)N[C@H]1CCc2ccccc21 [Example 5, 3-amino-N-[(1S)-2,3-dihydro-1H-inden-1-yl]-6-phenylpyrazine-2-carboxamide] |
| 0.05 to 1 µM |  | CNC(=O)c1nc(-c2cccc(C(=O)NCc3cccc(Cl)c3C)c2)cnc1N [Example 293, 3-amino-6-[3-({[(3-chloro-2-methylphenyl)methyl]amino}carbonyl)phenyl]-N-methylpyrazine-2-carboxamide] |
| 1 to 10 µM |  | CNC(=O)c1nc(-c2cccc(NC(=O)OC(C)(C)C)c2)cnc1N [Example 321, 1,1-dimethylethyl (3-{5-amino-6-[(methylamino)carbonyl]pyrazin-2-yl}phenyl)carbamate] |
| 0.05 to 1 µM |  | CNC(=O)c1nc(-c2cccc(C(=O)NC3CCN(Cc4ccccc4)CC3)c2)cnc1N [Example 118, 3-amino-N-methyl-6-[3-({[1-(phenylmethyl)piperidin-4-yl]amino}carbonyl)phenyl]pyrazine-2-carboxamide] |
|  | 1 to 10 µM | C/C(=N\Nc1ccc(C(C)C)cc1)c1nc(-c2cccc(C(=O)NCc3ccccc3)c2)cnc1N [Example 600, 3-(5-amino-6-{(1E)-N-[4-(1-methylethyl)phenyl]ethanehydrazonoyl}pyrazin-2-yl)-N-(phenylmethyl)benzamide] |
| 0.05 to 1 µM |  | CNC(=O)c1nc(-c2cccc(C(=O)NCCOc3ccccc3)c2)cnc1N [Example 198, 3-amino-N-methyl-6-[3-({[2-(phenyloxy)ethyl]amino}carbonyl)phenyl]pyrazine-2-carboxamide] |
| 0.05 to 1 µM |  | CCCCc1ccc(CNC(=O)c2cccc(-c3cnc(N)c(C(=O)NC)n3)c2)cc1 [Example 375, 3-amino-6-[3-({[(4-butylphenyl)methyl]amino}carbonyl)phenyl]-N-methylpyrazine-2-carboxamide] |

Source: patent US7704995B2 (Exelixis, Inc., priority 2003, dated 2010)
